This note sets out measurements from US12390402B2, “High-content and sustained-release retinoid capsule, and composition for reducing wrinkles, containing same” (LG HOUSEHOLD & HEALTH CARE LTD., priority 2018, dated 2025).

Each structure is given as a SMILES string.

This data set is described as follows: Solubility of retinoic acid in the liquid lipid. It is filed as physicochemical. Here is the method:
FIG. 2 is the result of the solubility in oil according to the binding of an amine compound and retinoid.
As shown in the Table 2, the maximum concentration of the retinoic acid soluble in the liquid lipid was 0.1% of the weight of the liquid lipid, and when added more the above, the retinoic acid was not dissolved, making it impossible to synthesize capsules (Comparative examples 1, 2, 3). On the other hand, it was determined that the solubility of retinoic acid was increased over 10% of the weight of the liquid lipid, when the amine compound at the same mole concentration as retinoic acid was added during dissolving retinoic acid in the liquid lipid (See Table 2). Through this, the dry weight of the retinoid in the final capsule after washing could be increased 100 times from conventional 0.03% to 3%.

In the case of `CC1=C(/C=C/C(C)=C/C=C/C(C)=C/C(=O)O)C(C)(C)CCC1` [retinoic acid], the “solubility of retinoic acid in the liquid lipid” value (amine compound added at the same mole concentration as retinoic acid) is reported as “over 10 % of the weight of the liquid lipid”. Besides, the “maximum concentration of the retinoic acid soluble in the liquid lipid” value (without amine compound, caprylic/capryl triglyceride) was 0.1 % of the weight of the liquid lipid.
